Data as given in patent publication US20070202547A1, “Methods For Detecting Substances Which Bind To The Amyloid Precursor Protein Or Beta Amyloid Fragments, And Binding Compounds” (priority 2004, published 2007).

Key:
Format in all cases: biochemical
gamma-secretase = gamma-secretase (Homo sapiens, UniProt P05067); assay: Gamma-secretase cleavage of CTFβ substrate (HeLa cell membrane extract); conditions: Aβ40 detection with 6E-10/G2-10, read-out: CTFβ CLEAVAGE AT POSITION 40
Description: Accordingly, Examples 1-4 were tested for their ability to inhibit gamma-secretase cleavage of both a full-length CTFβ substrate, as described in Li, 2000, Proc. Natl Acad Sci. 97:6138-6143. The assays were carried out as follows:
Inhibition of CTFβ Cleavage
• 10 μL 10× protease inhibitor cocktail (Roche, cat # 1836153) • 25 μL 4× Buffer (50 mM PIPES pH7.0, 150 mM KCl, 5 mM MgCl2, 5 mM CaCl2) • 2 μL 10% CHAPSO • 5 μL HeLa cell membrane extract characterized for gamma-secretase activity • 7 μL 25 μM bacterially expressed CTFβ • 51 μL water • 1 μL compound in DMSO The reactions were incubated at 37° C. for 150 min and quenched with 25 μL 5× RIPA buffer (750mM NaCl, 5% NP-40, 2.5% DOC, 0.5% SDS, 250 mM Tris H8.0). Detection:
Gamma-secretase cleavage of the CTFβ substrate was assessed by incubating 50 μL of the reaction with 25 μL of 4 μg/mL biotinylated antibody 6E-10 which is specific for the N-terminal region of Aβ, and 25 μL of 1.5 μg/mL of a ruthinylated antibody G2-10, which is specific to the C-terminal region of Aβ40. The C-terminal region is present only after gamma secretase cleavage of Aβ. The antibodies were allowed to bind overnight at room temperature. The following day, 25 μL of 80 μg/mL streptavidin-coated Dynabeads (M-280) were added to each reaction, allowed to bind for 30 minutes, and quenched with 275 μL IGEN assay buffer. Quantification of the gamma-secretase cleavage products was carried out using an Origen Analyzer.

BACE2 [1] = biological target: T1, BACE2 (Homo sapiens, UniProt P05067, A673V/D672E/K670N/M671F); assay: BACE2 cleavage of APP at the beta-secretase cleavage site (ALPHA); conditions: MBP-biotinylated APP fusion protein with NFEV site, pH 4.5, 30 minutes
T1 construct: IC50, BACE2 cleavage of APP at the beta-secretase cleavage site; other: MBP-biotinylated APP fusion protein with NFEV s; activity against BACE2 cleavage of APP at the beta-secretase position; other: result in words; biotin label
Description: (§1) The effect of Examples 1-4 on cleavage of APP at the beta-secretase cleavage site was assayed as follows:
(§2) • 25 μL 0.2 M Sodium Acetate, pH 4.5 • 10 μL 10× protease inhibitor cocktail (Roche, cat # 1836153) • 10 μL Bovine Serum Albumin (1 mg/mL solution) • 4 μL 5% CHAPS • 1 μL EDTA (150 mM, pH 4.5) • 2 μL DF • 4 μL MBP(Maltose binding protein)—biotininylated APP fusion protein containing the NFEV BACE cleavage site (bacterially expressed, 10 μM solution) • 1 μL DMSO or compound dissolved in DMSO • 2 μL BACE2 (CHO cell expressed protein, 250 nM) • 41 μL distilled water The reactions were incubated at 37° C. for 30 minutes, and were then quenched with 4 μL 1 M TrisHCl, pH 8.0. Detection of MBP Biotin APP(NF) Cleavage Product using ALPHA ALPHA Assay Mix was Prepared as Follows: • 20 μL Streptavidin Donor Beads (from AlphaScreen General IgG (Protein A) Detection Kit Perkin Elmer Life Sciences); 10,000 pts (Part Number 6760617M) • 20 μL Protein A Acceptor beads (from AlphaScreen General IgG (Protein A) Detection Kit Perkin Elmer Life Sciences); 10,000 pts (Part Number 6760617M) • 3.7 μL Affinity purified anti-NF antibody (203 μg/mL) (described in WO 02/094985) • 4.5 mL 0.1% BSA in PBS • 4 μL of quenched reaction mixture was combined with 46 μL of the assay mix. The reactions were incubated at room temperature overnight and read using the ALPHAQuest plate reader.

BACE2 [2] = biological target: T2, BACE2 (Homo sapiens, UniProt P05067, K670N/M671F/D672E/A673V); assay: as above; conditions: result in words
T2 construct: IC50, BACE2 cleavage of APP at the beta-secretase cleavage site; other: MBP-biotinylated APP fusion protein with NFEV s; activity against BACE2 cleavage of APP at the beta-secretase position; other: result in words; biotin label
Description: as §1, §2

BACE2 [3] = assay: BACE2 cleavage of EV amyloid / Aβ (mass spectrometric analysis); conditions: 100 μM, result in words
Description: The effect of inhibition of BACE 2 cleavage of EV amyloid was assayed using a protocol described in Shi et al, 2003, J. Biol. Chem., 278:21286-21294. The results of assaying Examples 1-4 at 100 μM are shown below: […]

BACE1 [4] = biological target: BACE1 (Homo sapiens, UniProt P56817); assay: BACE1 cleavage of full-length APP or beta-site P5/P5' peptide (FIG. 3); conditions: relative to DMSO-treated
Chain of BACE1 (Homo sapiens, UniProt P56817) (P56817 46-501): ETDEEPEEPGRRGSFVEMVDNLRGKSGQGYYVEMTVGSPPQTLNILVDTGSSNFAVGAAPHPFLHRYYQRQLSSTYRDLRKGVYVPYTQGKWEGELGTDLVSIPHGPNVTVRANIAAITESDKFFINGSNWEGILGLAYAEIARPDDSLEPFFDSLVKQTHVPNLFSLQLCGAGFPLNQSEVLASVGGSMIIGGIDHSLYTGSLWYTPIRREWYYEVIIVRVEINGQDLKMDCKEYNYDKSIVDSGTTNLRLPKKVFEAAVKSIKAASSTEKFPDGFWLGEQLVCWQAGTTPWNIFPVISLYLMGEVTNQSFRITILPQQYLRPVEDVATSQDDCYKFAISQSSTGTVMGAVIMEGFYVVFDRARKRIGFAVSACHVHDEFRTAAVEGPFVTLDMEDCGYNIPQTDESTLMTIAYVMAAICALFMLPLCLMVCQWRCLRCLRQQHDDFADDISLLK
Source text: (§3) FIG. 3(A) depicts inhibition by Statine-Val, which is a known inhibitor of BACE cleavage of both APP and APP fragments, including the beta-site P5/P5′ peptide fragment. […] depicts inhibition by Example 4. The graphs depict inhibition of cleavage of a full-length APP substrate (∘) or the beta-site P5/P5 fragment. (□). Enzymatic activity is shown relative to DMSO-treated BACE cleavage.

BACE1 [5] = assay: as above; conditions: relative to DMSO-treated
Source text: as §3

| Structure (SMILES) | IC50 (gamma-secretase) [µM] | IC50 (BACE2 [1]) [µM] | activity against BACE2 cleavage of APP at the beta-secretase position (BACE2 [2]) | effect on BACE2 cleavage at all Aβ sites (BACE2 [3]; FIG. 1) | effect on BACE2 cleavage at position 34 (BACE2 [3]) | effect on BACE2 cleavage at positions 19 and 20 (BACE2 [3]) | inhibition of BACE1 cleavage of beta-site P5/P5' peptide fragment (BACE1 [4]) | inhibition of BACE1 cleavage of full-length APP substrate (BACE1 [5]) |
| --- | --- | --- | --- | --- | --- | --- | --- | --- |
| O=C(O)COc1ccc2c(c1)CC(CCc1ccccc1)O2 (stereo not drawn) [Example 3] | 49 | ~100 | – | – | – | – | – | – |
| Oc1cc2c(cc1CCCOc1ccc(-c3nnn[nH]3)cc1Cl)OC(CCc1ccccc1)C2 (stereo not drawn) [Example 4, 6-{3-[2-chloro-4-(1H-tetrazol-5-yl)phenoxy]propyl}-2-(2-phenylethyl)-2,3-dihydro-1benzofuran-5-oI] | – | 20 | capable of inhibiting BACE2 cleavage of APP at the beta-secretase position with similar effectiveness to their inhibition of BACE1 cleavage at the same site | suppressed cleavage at all Aβ sites | blocked cleavage at position 34 | enhanced cleavage of Aβ at positions 19 and 20 | inhibits cleavage of APP only | inhibits cleavage of APP only |
